Reference: patent US7951814B2, “Quinazolinedione derivatives as TRPA1 modulators” (Glenmark Pharmaceuticals, S.A., priority 2008, dated 2011)

Biological target: T1, Human TRPA1 expressing CHO cells (Homo sapiens, UniProt O75762)
T1 construct: expressed in transfected cells; host or cells: CHO cells (under G-418 selection)
Experiment: 45Calcium uptake assay: inhibition of AITC induced cellular uptake of radioactive calcium
Type: cell-based
Conditions: AITC 30 μM; for inhibition at 1 µM: 1.0 μM test compound, read-out: Percentage inhibition at 1.0 μM; for inhibition at 1 µM / inhibition at 10 µM / IC50: human TRPA1 CHO cells; for inhibition at 10 µM: 10.0 μM test compound, read-out: Percentage inhibition at 10.0 μM; for IC50: read-out: IC50 value (range)
Description: The illustrative examples of the present invention are screened for TRPA1 activity according to a modified procedure described in (a) Tóth, A. et al. Life Sciences (2003), 73, 487-498. ([…]. et al. Proc. Natl. Acad. Sci. U.S.A., (2007), 104, 13525-13530. The screening of the compounds can be carried out by other methods and procedures known to persons skilled in the art. Screening for TRPA1 Antagonist Using the ^45Calcium Uptake Assay The inhibition of TRPA1 receptor activation was measured as inhibition of allyl isothiocyanate (AITC) induced cellular uptake of radioactive calcium. […] Final concentration of DMSO in the reaction was 0.5% (v/v). […] Cells were seeded 24 h prior to the assay in 96 well plates so as to get 50,000 cells per well on the day of experiment. Cells were treated with test compounds for 10 min followed by addition of AITC at a final concentration of 30 μM and 5 μCi/ml ^45Ca^+2 for 3 min. […] Radioactivity in the lysate was measured in Packard Top count after addition of liquid scintillant. Concentration response curves were plotted as a % of maximal response obtained in the absence of test antagonist. IC50 value was calculated from concentration response curve by nonlinear regression analysis using GraphPad PRISM software.

T1 sequence (O75762 whole entry): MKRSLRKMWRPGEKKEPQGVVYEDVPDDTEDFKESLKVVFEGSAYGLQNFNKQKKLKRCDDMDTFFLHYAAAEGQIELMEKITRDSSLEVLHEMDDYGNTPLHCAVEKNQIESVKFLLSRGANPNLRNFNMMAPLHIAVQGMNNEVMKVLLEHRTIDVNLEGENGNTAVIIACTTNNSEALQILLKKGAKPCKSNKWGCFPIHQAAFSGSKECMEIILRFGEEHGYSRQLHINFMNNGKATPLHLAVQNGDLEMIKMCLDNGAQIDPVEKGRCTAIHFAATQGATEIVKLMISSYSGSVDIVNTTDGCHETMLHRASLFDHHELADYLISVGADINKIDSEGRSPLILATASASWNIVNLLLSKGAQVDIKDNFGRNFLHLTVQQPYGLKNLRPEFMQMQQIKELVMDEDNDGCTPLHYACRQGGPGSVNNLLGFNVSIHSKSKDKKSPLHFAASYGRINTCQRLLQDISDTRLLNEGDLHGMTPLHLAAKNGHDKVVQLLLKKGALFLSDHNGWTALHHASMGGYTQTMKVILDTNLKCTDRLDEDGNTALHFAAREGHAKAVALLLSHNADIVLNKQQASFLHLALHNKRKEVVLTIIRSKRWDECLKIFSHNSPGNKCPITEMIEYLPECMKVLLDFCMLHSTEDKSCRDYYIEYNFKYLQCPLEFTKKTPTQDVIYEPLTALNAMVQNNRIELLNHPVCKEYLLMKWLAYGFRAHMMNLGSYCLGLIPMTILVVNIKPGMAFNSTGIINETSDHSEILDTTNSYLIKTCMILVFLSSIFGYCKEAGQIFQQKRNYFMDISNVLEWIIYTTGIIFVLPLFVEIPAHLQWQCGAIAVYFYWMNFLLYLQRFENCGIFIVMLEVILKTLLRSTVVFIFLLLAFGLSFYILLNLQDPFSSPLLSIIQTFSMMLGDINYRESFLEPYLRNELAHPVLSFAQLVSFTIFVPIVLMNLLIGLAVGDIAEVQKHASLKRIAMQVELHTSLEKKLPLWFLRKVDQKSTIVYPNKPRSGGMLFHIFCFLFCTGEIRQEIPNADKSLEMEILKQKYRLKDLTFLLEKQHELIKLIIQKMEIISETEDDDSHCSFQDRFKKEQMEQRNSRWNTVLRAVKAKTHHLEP

Row | Compound | inhibition at 1 µM | inhibition at 10 µM | IC50 | inhibition at 3 µM (CHO, 3 μM test compound (printed in the 10.0 μM column), read-out: Percentage inhibition (3 μM))
1 | Cn1c(=O)c2c(CC(=O)Nc3nc(-c4c(Cl)ccc(F)c4Cl)cs3)cccc2n(C)c1=O [Example 64, N1-[4-(2,6Dichloro-3-fluorophenyl)-1,3-thiazol-2-yl]-2-(1,3-dimethyl-2,4-dioxo-1,2,3,4-tetrahydro-5-quinazolinyl)acetamide] | 11.5% | 27% | – | –
2 | Cn1c(=O)c2c(CC(=O)Nc3nc(-c4ccc(Cl)cc4F)cs3)cccc2n(C)c1=O [Example 51, N1-[4-(4-Chloro-2-fluorophenyl)-1,3-thiazol-2-yl]-2-(1,3-dimethyl-2,4-dioxo-1,2,3,4-tetrahydro-5-quinazolinyl)acetamide] | 97.5% | 99.3% | > 100 nM | –
3 | CCc1ccc(-c2csc(NC(=O)Cc3cccc4c3c(=O)n(C)c(=O)n4C)n2)cc1 [Example 23] | 96.2% | 96.9% | 50.1 to 100 nM | –
4 | Cn1c(=O)c2c(CC(=O)Nc3ccc(-c4ccc(Cl)cc4)cn3)cccc2n(C)c1=O [Example 5, N1-[5-(4-chlorophenyl)-2-pyridyl]-2-(1,3-dimethyl-2,4-dioxo-1,2,3,4-tetrahydro-5-quinazolinyl)acetamide] | 52.2% | 71.5% | – | –
5 | CC(C)c1ccc(-c2csc(NC(=O)Cc3cccc4c3c(=O)n(C)c(=O)n4C)n2)cc1 [Example 22, N1-[4-(4-isopropylphenyl)-1,3-thiazol-2-yl]-2-(1,3-dimethyl-2,4-dioxo-1,2,3,4-tetrahydro-5-quinazolinyl)acetamide] | 95.3% | 98% | 50.1 to 100 nM | –
6 | O=C(Cc1cccc2[nH]c(=O)[nH]c(=O)c12)Nc1nc(-c2ccc(Cl)cc2)cs1 [Example 29, N1-[4-(4-Chlorophenyl)-1,3-thiazol-2-yl]-2-(2,4-dioxo-1,2,3,4-tetrahydro-5-quinazolinyl)acetamide] | 20.9% | 47.7% | – | –
7 | Cn1c(=O)c2c(CC(=O)Nc3nc(-c4cn(C)c5ccccc45)cs3)cccc2n(C)c1=O [Example 74] | 96.3% | 97.7% | > 100 nM | –
8 | Cc1ccc(Oc2ccc(NC(=O)Cc3cccc4c3c(=O)n(C)c(=O)n4C)cc2)cc1 [Example 3, N1-[4-(4-Methylphenoxy)phenyl]-2-(1,3-dimethyl-2,4-dioxo-1,2,3,4-tetrahydro-5-quinazolinyl)acetamide] | 7.98% | 31.6% | – | –
9 | CC(C)Cc1ccc(-c2csc(NC(=O)Cc3cccc4c3c(=O)n(C)c(=O)n4C)n2)cc1 [Example 21] | 95.7% | 99.7% | < 50 nM | –
10 | Cn1c(=O)c2c(CC(=O)Nc3nc(-c4ccc(C(F)(F)F)c(F)c4F)cs3)cccc2n(C)c1=O [Example 65, N1-[4-(2,3-Difluoro-4-trifluormethylphenyl)-1,3-thiazol-2-yl]-2-(1,3-dimethyl-2,4-dioxo-1,2,3,4-tetrahydro-5-quinazolinyl)acetamide] | 99.4% | 99.6% | < 50 nM | –
11 | Cn1c(=O)c2c(CC(=O)Nc3nc(-c4ccccc4)cs3)cccc2n(C)c1=O [Example 8, N1-[4-phenyl-1,3-thiazol-2-yl]-2-(1,3-dimethyl-2,4-dioxo-1,2,3,4-tetrahydro-5-quinazolinyl)acetamide] | 52.9% | 79.9% | – | –
12 | Cn1c(=O)c2c(CC(=O)Nc3nc(-c4ccc(F)cc4C(F)(F)F)cs3)cccc2n(C)c1=O [Example 39, N1-[4-(4-Fluoro-2-trifluoromethylphenyl)-1,3-thiazol-2-yl]-2-(1,3-dimethyl-2,4-dioxo-1,2,3,4-tetrahydro-5-quinazolinyl)acetamide] | 51.6% | 90.3% | – | –
13 | CCCn1c(=O)c2c(CC(=O)Nc3nc(-c4cccc(C(F)(F)F)c4)cs3)cccc2n(CCC)c1=O [Example 26, N1-[4-(3-Trifluoromethylphenyl)-1,3-thiazo-2-yl]-2-(1,3-dipropyl-2,4-dioxo-1,2,3,4-tetrahydro-5-quinazolinyl)acetamide] | 13.6% | 5.39% | – | –
14 | CC(C)CCOc1ccc(-c2csc(NC(=O)Cc3cccc4c3c(=O)n(C)c(=O)n4C)n2)cc1 [Example 19, N1-[4-(4-(3-Methylbutoxy)phenyl)-1,3-thiazol-2-yl]-2-(1,3-dimethyl-2,4-dioxo-1,2,3,4-tetrahydro-5-quinazolinyl)acetamide] | 93% | 97.9% | 50.1 to 100 nM | –
15 | Cn1c(=O)c2c(CC(=O)Nc3nc(-c4ccc(C(F)(F)F)cc4)cs3)cccc2n(C)c1=O [Example 14, N1-[4-(4-Trifluromethylphenyl)-1,3-thiazol-2yl]-2-(1,3-dimethyl-2,4-dioxo-1,2,3,4-tetrahydro-5-quinazolinyl)acetamide] | 97.9% | 99.1% | < 50 nM | –
16 | Cn1c(=O)c2c(CC(=O)Nc3cccc(-c4ccc(C(F)(F)F)cc4)n3)cccc2n(C)c1=O [Example 6, N1-[6-(4-Trifluoromethylphenyl)-2-pyridyl]-2-(1,3-dimethyl-2,4-dioxo-1,2,3,4-tetrahydro-5-quinazolinyl)acetamide] | 71.3% | 88.2% | – | –
17 | Cn1c(=O)c2c(CC(=O)Nc3nc(-c4cc(Cl)ccc4F)cs3)cccc2n(C)c1=O [Example 52, N1-[4-(5-Chloro-2-fluorophenyl)-1,3-thiazol-2-yl]-2-(1,3-dimethyl-2,4-dioxo-1,2,3,4-tetrahydro-5-quinazolinyl)acetamide] | 92.5% | 95.3% | > 100 nM | –
18 | Cn1c(=O)c2c(CC(=O)Nc3nc(-c4c(F)cccc4Cl)cs3)cccc2n(C)c1=O [Example 53, N1-[4-(2-Chloro-6-fluorophenyl)-1,3-thiazol-2-yl]-2-(1,3-dimethyl-2,4-dioxo-1,2,3,4-tetrahydro-5-quinazolinyl)acetamide] | 33.1% | 88.6% | – | –
19 | Cn1c(=O)c2c(CC(=O)Nc3nc(-c4cc(F)c(C(F)(F)F)c(F)c4)cs3)cccc2n(C)c1=O [Example 66, N1-{4-[3,5-Difluoro-4-trifluoromethylphenyl]-1,3-thiazol-2-yl}-2-(1,3-dimethyl-2,4-dioxo-1,2,3,4-tetrahydro-5-quinazolinyl)acetamide] | 100% | 100% | < 50 nM | –
20 | Cn1c(=O)c2c(CC(=O)Nc3nc(-c4ccc(Br)cc4)cs3)cccc2n(C)c1=O [Example 12] | 98.7% | 99.2% | 50.1 to 100 nM | –
21 | Cn1c(=O)c2c(CC(=O)Nc3nc(-c4ccc(OC(F)F)c(Cl)c4)cs3)cccc2n(C)c1=O [Example 57, N1-{4-[3-Chloro-4-(difluoromethoxy)phenyl]-1,3-thiazol-2-yl}-2-(1,3-dimethyl-2,4-dioxo-1,2,3,4-tetrahydro-5-quinazolinyl)acetamide] | 97.8% | 99.7% | < 50 nM | –
22 | Cn1c(=O)c2c(CC(=O)Nc3nc(-c4ccc(F)c(C(F)(F)F)c4F)cs3)cccc2n(C)c1=O [Example 67, N1-{4-[2,4-Difluoro-3-trifluoromethylphenyl]-1,3-thiazol-2-yl}-2-(1,3-dimethyl-2,4-dioxo-1,2,3,4-tetrahydro-5-quinazolinyl)acetamide] | 97.8% | – | < 50 nM | 99.5%
23 | Cn1c(=O)n(CC2CC2)c(=O)c2c(CC(=O)Nc3nc(-c4ccc(C(C)(C)C)cc4)cs3)cccc21 [Example 27, N1-[4-(4-tert-Butylphenyl)-1,3-thiazol-2-yl]-2-(1-methyl-3-cyclopropylmethyl-2,4-dioxo-1,2,3,4-tetrahydro-5-quinazolinyl)acetamide] | 17.2% | 29.6% | – | –
24 | Cn1c(=O)c2c(CC(=O)Nc3nc(-c4ccc(I)cc4)cs3)cccc2n(C)c1=O [Example 13, N1-[4-(4-Iodophenyl)-1,3-thiazol-2yl]-2-(1,3-dimethyl-2,4-dioxo-1,2,3,4-tetrahydro-5-quinazolinyl)acetamide] | 79.2% | 94.7% | 50.1 to 100 nM | –
25 | Cn1c(=O)c2c(CC(=O)Nc3nc(-c4ccc(C5CCCCC5)cc4)cs3)cccc2n(C)c1=O [Example 18, N1-[4-(4-Cyclohexylphenyl)-1,3-thiazol-2yl]-2-(1,3-dimethyl-2,4-dioxo-1,2,3,4-tetrahydro-5-quinazolinyl)acetamide] | 79.3% | 88.3% | < 50 nM | –
26 | Cn1c(=O)c2c(CC(=O)Nc3ccn(-c4ccc(Cl)cc4)n3)cccc2n(C)c1=O [Example 80, N1-[1-(4-Chlorophenyl)-1H,3-pyrazolyl]-2-(1,3-dimethyl-2,4-dioxo-1,2,3,4-tetrahydro-5-quinazolinyl)acetamide] | 97.2% | 99.7% | 50.1 to 100 nM | –
